Measured values: patent publication US20260241049A1, “Radiopharmaceutical Compositions Targeting Glypican-3 and Uses Thereof” (RayzeBio, Inc., priority 2023, published 2026)
Starred links: 1 amine or outer side, 2 acyl side, 3 side chain; linkers in the order of their positions; H or OH if unused. Positions of bridges follow the written chain, without caps; N, C: chain ends. Non-standard residues stand in square brackets, D forms with d. Residues, ends and D or L forms follow the SMILES beside them. Groups on a side chain read outwards from the residue. *: point of attachment. Phe(4-(1-Me-pyrazol-4-yl)) = Cn1cc(-c2ccc(C[C@H](N)C(=O)O)cc2)cn1; NMeAla(isoquinolin-7-yl) = CN[C@@H](Cc1ccc2ccncc2c1)C(=O)O; DOTA = O=C(O)CN1CCN(CC(=O)O)CCN(CC(=O)*)CCN(CC(=O)O)CC1; CH2CON(CH2CH2)2NCH2COOH = O=C(O)CN1CCN(C(=O)C*)CC1; 3Pal(6-Ph) = N[C@@H](Cc1ccc(-c2ccccc2)nc1)C(=O)O; Phe(4-COOH) = N[C@@H](Cc1ccc(C(=O)O)cc1)C(=O)O; Piperazinyl(4-CH2COOH) = O=C(O)CN1CCN(*)CC1; NMe2Nal = CN[C@@H](Cc1ccc2ccccc2c1)C(=O)O; AEF = NCCOc1ccc(C[C@H](N)C(=O)O)cc1; NMeI = CC[C@H](C)[C@H](NC)C(=O)O; NMeQ = CN[C@@H](CCC(N)=O)C(=O)O; NMehCys = CN[C@@H](CCS)C(=O)O; NMehSer = CN[C@@H](CCO)C(=O)O; NMeK = CN[C@@H](CCCCN)C(=O)O; NMeC = CN[C@@H](CS)C(=O)O; Carboxymethyl = O=C(O)C*; NMeA = CN[C@@H](C)C(=O)O; CO = O=C([*:1])[*:2]

B1: Macrocyclic peptide of Example 2-37 (SEQ ID No. 54) (peptide)
peptide: XSDXFTIXFGXC
modifications: not fully specified; MeDapCOpipzaa-MeHseMe-D-MeDapCOpipzaa-F4COO-TMe-I-Yae-MeNal27N-G-3Py6Ph-MeC-NH2; thioether ring from N-terminal acetyl to MeC12
B2: Macrocyclic peptide of Example 2-33 (SEQ ID No. 50) (peptide)
peptide: XSDXFTIXFGXC
modifications: not fully specified; MeDapCOpipzaa-MeHseMe-D-MeDapCOpipzaa-F4COO-TMe-I-Yae-MeNal2-G-3Py6Ph-MeC-NH2; thioether ring from N-terminal acetyl to MeC12

Target: Human Glypican3-Fc (Homo sapiens, UniProt P51654)
Test: SPR binding to Glypican-3, Method B-2 (Glypican3-Fc captured by anti-human IgG (Fc) antibody on CM3 chip)
Details: SPR method B-2
Method: A CM3 sensor chip (Cytiva) was inserted into a Biacore T200 (Cytiva), primed three times with a running buffer: HBS-P-+, pH 7.4 (Cytiva), and equilibrated at a flow rate of 30 μL/min. Using the Anti-Fc Capture Kit (Cytiva), 50 LL each of 60 mM EDC solution (Cytiva) and 650 mM NHS solution (Cytiva) were mixed, and then reacted at a flow rate of 10 μL/min for 420 seconds, 150 μL of […] Anti-human IgG (Fc) Antibody solution was prepared by diluting with 10 mM acetic acid solution (pH 5.0), reacted at a flow rate of 10 μL/min for 420 seconds, and immobilized on a CM3 sensor chip. After immobilization, 1.0 M ethanolamine aqueous solution (Cytiva) was allowed to react for 420 seconds at a flow rate of 10 μL/min for capping. Human Glypican3-Fc (ACRO Biosystems, GP3-H5258) was allowed to react for 60 seconds at a flow rate of 10 μL/min. After capturing human Glypican3-Fc, a peptide solution prepared to 10 mM in DMSO solution was diluted with a running buffer to a final concentration of 10 μM. After that, 5 serial dilution series (100 nM, 50 nM, 25 nM, 10 nM, 5 nM) of peptide solutions were prepared. Using the above samples, peptide kinetics for Glypican3 was obtained by SPR measurement. Kinetics evaluation of Glypican3 was performed by SPR measurements at a flow rate of 10 μL/min. setting the association time to 120 seconds and the disassociation time to 600 seconds.
(§1) The obtained data by Method B-1, Method B-2, Method B-3 and Method B-4 were analyzed by follow. Single Cycle Kinetics was used as the kinetics evaluation model, and curve fitting was performed using Biacore T200 Evaluation Software Version 3.0 (Cytiva). The obtained sensorgram was subjected to curve fitting by the method of least squares and obtained KD values of the macrocyclic peptides in this disclosure for Glypican 3 protein are shown in Table 18.

Row | Molecule | Kd [nM]
1 | CC[C@H](C)[C@@H]1NC(=O)[C@H](Cc2ccc(C(=O)O)cc2)NC(=O)[C@H](CCC(N)=O)N(C)C(=O)[C@H](CC(=O)O)NC(=O)[C@H]([C@@H](C)CC)N(C)C(=O)[C@H](CCCCNC(=O)[C@@H](Cc2ccccc2)NC(=O)CN2CCN(CC(=O)O)CCN(CC(=O)O)CCN(CC(=O)O)CC2)N(C)C(=O)CSC[C@@H](C(N)=O)N(C)C(=O)[C@H](Cc2ccc(-c3ccccc3)nc2)NC(=O)CNC(=O)[C@H](Cc2ccc3ccncc3c2)N(C)C(=O)[C@H](Cc2ccc(OCC(=O)O)cc2)NC(=O)[C@H]([C@@H](C)CC)NC1=O [Lu-C-41] ({CH2CO}-[NMeK]([dF-DOTA])[NMeI]D[NMeQ][Phe(4-COOH)]IIY(Carboxymethyl)[NMeAla(isoquinolin-7-yl)]G[3Pal(6-Ph)][NMeC]-NH2; thioether N-12) | 0.8
2 | CC[C@H](C)[C@@H]1NC(=O)[C@H]([C@@H](C)OC)NC(=O)[C@H](Cc2ccc(C(=O)O)cc2)NC(=O)[C@H](CCC(N)=O)N(C)C(=O)[C@H](CC(=O)O)NC(=O)[C@H](CCOC)N(C)C(=O)[C@H](CCC(N)=O)N(C)C(=O)CSC[C@@H](C(N)=O)N(C)C(=O)[C@H](Cc2ccc(-c3ccccc3)nc2)NC(=O)CNC(=O)[C@H](Cc2ccc3ccccc3c2)N(C)C(=O)[C@H](Cc2ccc(OCCNC(=O)N3CCN(CC(=O)O)CC3)cc2)NC1=O [Conjugate 2-19] ({CH2CO}-[NMeQ][NMehSer](Me)D[NMeQ][Phe(4-COOH)]T(Me)I[AEF]([CO-Piperazinyl(4-CH2COOH)])[NMe2Nal]G[3Pal(6-Ph)][NMeC]-NH2; thioether N-12) | 0.5
3 | CC[C@H](C)[C@@H]1NC(=O)[C@H]([C@@H](C)OC)NC(=O)[C@H](Cc2ccc(C(=O)O)cc2)NC(=O)[C@H](CCC(N)=O)N(C)C(=O)[C@H](CC(=O)O)NC(=O)[C@H](CCOC)N(C)C(=O)[C@H](C)N(C)C(=O)CSC[C@@H](C(N)=O)N(C)C(=O)[C@H](Cc2ccc(-c3ccccc3)nc2)NC(=O)CNC(=O)[C@H](Cc2ccc3ccccc3c2)N(C)C(=O)[C@H](Cc2ccc(OCCNC(=O)CN3CCN(CC(=O)O)CCN(CC(=O)O)CCN(CC(=O)O)CC3)cc2)NC1=O [Lu-C-44] ({CH2CO}-[NMeA][NMehSer](Me)D[NMeQ][Phe(4-COOH)]T(Me)I[AEF](DOTA)[NMe2Nal]G[3Pal(6-Ph)][NMeC]-NH2; thioether N-12) | 1
4 | CC[C@H](C)[C@@H]1NC(=O)[C@H]([C@@H](C)OC)NC(=O)[C@H](Cc2ccc(C(=O)O)cc2)NC(=O)[C@H](CCC(N)=O)N(C)C(=O)[C@H](CC(=O)O)NC(=O)[C@H](CCOC)N(C)C(=O)[C@H](CCC(N)=O)N(C)C(=O)CSC[C@@H](C(N)=O)N(C)C(=O)[C@H](Cc2ccc(-c3ccccc3)nc2)NC(=O)CNC(=O)[C@H](Cc2ccc3ccccc3c2)N(C)C(=O)[C@H](Cc2ccc(OCC(=O)N3CCN(CC(=O)O)CC3)cc2)NC1=O [Conjugate 2-22] ({CH2CO}-[NMeQ][NMehSer](Me)D[NMeQ][Phe(4-COOH)]T(Me)IY(CH2CON(CH2CH2)2NCH2COOH)[NMe2Nal]G[3Pal(6-Ph)][NMeC]-NH2; thioether N-12) | 0.8

Target: Human Glypican3-Fc (ACRO Biosystems, GP3-H5258) (human) (UniProt P51654)
Test: SPR (Biacore T200), Method B-3: Glypican3-Fc captured on Protein A chip, peptide as analyte
Details: not given

Row | Molecule | Kd [nM]
5 | B1 | 1
6 | B2 | 0.3

Target: T1, human Glypican3 (Homo sapiens, UniProt P51654)
T1 construct: purchased R&D systems 2119-GP
Test: SPR binding to Glypican-3, Method B-1 (Glypican3 immobilized on CM3 chip, Biacore T200)
Details: SPR method B-1
Method: A CM3 sensor chip (Cytiva) was inserted into a Biacore T200 (Cytiva), primed three times with a running buffer: HBS-P+, pH 7.4 (Cytiva), and equilibrated at a flow rate of 30 μL/min. Ligand immobilization was performed at a flow rate of 10 μL/min. 50 μL each of 60 mM EDC solution (Cytiva) and 650 mM NHS solution (Cytiva) were mixed, and then reacted at a flow rate of 10 μL/min for 420 seconds, 150 μL of 0.2 μM human Glypican3 (R&D systems, catalog number: 2119-GP) solution which was prepared by diluting with 10 mM acetic acid solution (pH 5.0), was reacted at a flow rate of 10 μL/min for 420 seconds, and Glypican3 was immobilized on the CM3 sensor chip. After immobilization, 1.0 M ethanolamine aqueous solution (Cytiva) was allowed to react for 420 seconds at a flow rate of 10 μL/min for capping. A peptide lysate prepared to 10 mM in DMSO solution was diluted with running buffer to a final concentration of 10 μM peptide lysate. After that, 5 serial dilution series (100 nM, 50 nM, 25 nM, 10 nM, 5 nM) of peptide solutions were prepared. Using the above samples, peptide kinetics for Glypican3 was obtained by SPR measurement. Kinetics evaluation of Glypican3 was performed by SPR measurements at a flow rate of 10 μL/min, setting the association time to 120 seconds and the disassociation time to 600 seconds.
as §1

Row | Molecule | Kd [nM]
7 | CC[C@H](C)[C@@H]1NC(=O)[C@H](Cc2ccc(C(=O)O)cc2)NC(=O)[C@H](CCC(N)=O)N(C)C(=O)[C@H](CC(=O)O)NC(=O)[C@H]([C@@H](C)CC)N(C)C(=O)[C@H](CCCCNC(C)=O)N(C)C(=O)CSC[C@@H](C(N)=O)N(C)C(=O)[C@H](Cc2ccc(-c3cnn(C)c3)cc2)NC(=O)CNC(=O)[C@H](Cc2ccc3ccccc3c2)N(C)C(=O)[C@H](Cc2ccc(C(=O)O)cc2)NC(=O)[C@H]([C@@H](C)CC)NC1=O [Conjugate 2-2] ({CH2CO}-[NMeK](Ac)[NMeI]D[NMeQ][Phe(4-COOH)]II[Phe(4-COOH)][NMe2Nal]G[Phe(4-(1-Me-pyrazol-4-yl))][NMeC]-NH2; thioether N-12) | 1.5
8 | CC[C@H](C)[C@@H]1NC(=O)[C@H]([C@@H](C)OC)NC(=O)[C@H](Cc2ccc(C(=O)O)cc2)NC(=O)[C@H](CCC(N)=O)N(C)C(=O)[C@H](CC(=O)O)NC(=O)[C@H](CCC(N)=O)N(C)C(=O)[C@H](CCC(N)=O)N(C)C(=O)SCC[C@@H](C(N)=O)N(C)C(=O)[C@H](Cc2ccc(-c3cnn(C)c3)cc2)NC(=O)CNC(=O)[C@H](Cc2ccc3ccccc3c2)N(C)C(=O)[C@H](Cc2ccc(C(=O)O)cc2)NC1=O [Conjugate 2-15] ([NMeQ][NMeQ]D[NMeQ][Phe(4-COOH)]T(Me)I[Phe(4-COOH)][NMe2Nal]G[Phe(4-(1-Me-pyrazol-4-yl))][NMehCys]-NH2; linker N-12 via CO) | 1.8
9 | CC[C@H](C)[C@@H]1NC(=O)[C@H](Cc2ccc(C(=O)O)cc2)NC(=O)[C@H](CCC(N)=O)N(C)C(=O)[C@H](CCC(N)=O)NC(=O)[C@H]([C@@H](C)CC)N(C)C(=O)[C@H](CCCCNC(C)=O)N(C)C(=O)CSC[C@@H](C(N)=O)N(C)C(=O)[C@H](Cc2ccc(-c3cnn(C)c3)cc2)NC(=O)CNC(=O)[C@H](Cc2ccc3ccccc3c2)N(C)C(=O)[C@H](Cc2ccc(C(=O)O)cc2)NC(=O)[C@H]([C@@H](C)CC)NC1=O [Conjugate 2-3] ({CH2CO}-[NMeK](Ac)[NMeI]Q[NMeQ][Phe(4-COOH)]II[Phe(4-COOH)][NMe2Nal]G[Phe(4-(1-Me-pyrazol-4-yl))][NMeC]-NH2; thioether N-12) | 1.2
10 | CC[C@H](C)[C@@H]1NC(=O)[C@H](Cc2ccc(C(=O)O)cc2)NC(=O)[C@H](CCC(N)=O)N(C)C(=O)[C@H](CC(=O)O)NC(=O)[C@H]([C@@H](C)CC)N(C)C(=O)[C@H](CCCCNC(C)=O)N(C)C(=O)CSC[C@@H](C(N)=O)N(C)C(=O)[C@H](Cc2ccc(-c3ccccc3)nc2)NC(=O)CNC(=O)[C@H](Cc2ccc3ccccc3c2)N(C)C(=O)[C@H](Cc2ccc(C(=O)O)cc2)NC(=O)[C@H]([C@@H](C)CC)NC1=O [Conjugate 2-1] ({CH2CO}-[NMeK](Ac)[NMeI]D[NMeQ][Phe(4-COOH)]II[Phe(4-COOH)][NMe2Nal]G[3Pal(6-Ph)][NMeC]-NH2; thioether N-12) | 0.5
11 | CC[C@H](C)[C@@H]1NC(=O)[C@H](Cc2ccc(C(=O)O)cc2)NC(=O)[C@H](CCC(N)=O)N(C)C(=O)[C@H](CCCCNC(C)=O)NC(=O)[C@H](CCC(N)=O)N(C)C(=O)[C@H](CCC(N)=O)N(C)C(=O)CSC[C@@H](C(N)=O)N(C)C(=O)[C@H](Cc2ccc(-c3cnn(C)c3)cc2)NC(=O)CNC(=O)[C@H](Cc2ccc3ccccc3c2)N(C)C(=O)[C@H](Cc2ccc(C(=O)O)cc2)NC(=O)[C@H]([C@@H](C)CC)NC1=O [Conjugate 2-11] ({CH2CO}-[NMeQ][NMeQ]K(Ac)[NMeQ][Phe(4-COOH)]II[Phe(4-COOH)][NMe2Nal]G[Phe(4-(1-Me-pyrazol-4-yl))][NMeC]-NH2; thioether N-12) | 2.5
